Data on 9 molecules can be found in patent publication US20230212129A1, “QUINAZOLINE DERIVATIVES USEFUL AS SELECTIVE HDAC6 INHIBITORS” (AnnJi Pharmaceutical Co., Ltd., priority 2020, published 2023).

In data set [1] the test system is cisplatin-induced neuropathy. In words: Cisplatin-induced neuropathy, von Frey paw-withdrawal murine model. The class given is in vivo, Balb/c mice. The conditions noted are these: oral once daily Day 16 to 29 (pregabalin 15 mg/kg one hour prior to test); vs cisplatin control; FIG. 4. The method, then:
To understand whether COMPOUND 2 exerts neuron protective activities in cisplatin-induced neuropathy, a paw-withdrawal murine model is deployed. The 50% paw withdrawal threshold (PWT) to a static mechanical stimulus was assessed using von Frey filament and up-and-down method following the procedure described by Chaplan (1994). Mechanical allodynia, a painful sensation caused by innocuous stimuli like light touch, was assessed by the manual von Frey test once per week (on day 7, 14, 21, 28, […], and 42). The animals indicated sensation by pulling back its paw. The minimum force leading to withdrawal of the paw was regarded as the reflex threshold.
Balb/c mice weighing about 25±2 gram were given cisplatin intraperitoneally at the dose of 1.5 mg/kg for 5 consecutive days (cumulative dose of 7.5 mg/kg), followed by 5 days of recovery. The cisplatin administration cycle was repeated once more to reach a cumulative dose of 15 mg/kg to induce neuropathy. Test compounds, COMPOUND 2 and ACY1215, were orally administered once daily for 2 weeks (except for the weekends) from Day 16 to 29. Pregabalin, a drug known to provide transient pain relief, was administered at a dose of 15 mg/kg prior to each von Frey stimulus test to serve as the positive control.

For the next data set, the system named is Rat DRG cells. Put plainly: Cisplatin-induced neurite degeneration in DRG cells. The conditions noted are these: 0.3 μM with 0.5 mM cisplatin, 48 hours; p<0.05; FIG. 3. It counts as cell-based. The protocol:
Rat DRG cells were used to investigate the protective effect of HDAC6 inhibitors. DRG cells were treated with 0.5 mM of cisplatin with or without 0.3 μM of COMPOUND 2 or ACY1215 for 48 hours. The neurite area and the number of blebs (cell apoptosis) per image were calculated and their ratio values among the tested groups were compared and shown in FIG. 3.

The next data set has as its target T1, HDAC1 (Homo sapiens, UniProt Q13547).
T1 construct: GST (C); host or cells: baculovirus expression system, Sf9 insect cells (SP9 [sic])
Put plainly: HDAC1 activity, acetylated-AMC-labeled peptide substrate. It counts as biochemical. The method, then: (§1) The activities of HDAC 1 and 6 were measured by using an acetylated-AMC-labeled peptide substrate, a fluorogenic peptide from p53 residues 379-382 (RHIKKAc). The proteins involved in the assay are as the followings (1) Human HIDAC1 (Genflank Accession No. NM_004964): Full length with C-terminal GST tag, MW=79.9 kDa, expressed by baculovirus expression system in SP9 cells; and (2) Human HIDAC6 (Genflank Accession No. BC069243): Full length with N-terminal GST tag, MW=159 kDa, expressed by baculovirus expression system in Sf9 cells.

The target of the next data set is T2, HDAC6 (Homo sapiens, UniProt Q9UBN7).
T2 construct: GST (N); host or cells: baculovirus expression system, Sf9 insect cells
T2 sequence (Q9UBN7 1-1215): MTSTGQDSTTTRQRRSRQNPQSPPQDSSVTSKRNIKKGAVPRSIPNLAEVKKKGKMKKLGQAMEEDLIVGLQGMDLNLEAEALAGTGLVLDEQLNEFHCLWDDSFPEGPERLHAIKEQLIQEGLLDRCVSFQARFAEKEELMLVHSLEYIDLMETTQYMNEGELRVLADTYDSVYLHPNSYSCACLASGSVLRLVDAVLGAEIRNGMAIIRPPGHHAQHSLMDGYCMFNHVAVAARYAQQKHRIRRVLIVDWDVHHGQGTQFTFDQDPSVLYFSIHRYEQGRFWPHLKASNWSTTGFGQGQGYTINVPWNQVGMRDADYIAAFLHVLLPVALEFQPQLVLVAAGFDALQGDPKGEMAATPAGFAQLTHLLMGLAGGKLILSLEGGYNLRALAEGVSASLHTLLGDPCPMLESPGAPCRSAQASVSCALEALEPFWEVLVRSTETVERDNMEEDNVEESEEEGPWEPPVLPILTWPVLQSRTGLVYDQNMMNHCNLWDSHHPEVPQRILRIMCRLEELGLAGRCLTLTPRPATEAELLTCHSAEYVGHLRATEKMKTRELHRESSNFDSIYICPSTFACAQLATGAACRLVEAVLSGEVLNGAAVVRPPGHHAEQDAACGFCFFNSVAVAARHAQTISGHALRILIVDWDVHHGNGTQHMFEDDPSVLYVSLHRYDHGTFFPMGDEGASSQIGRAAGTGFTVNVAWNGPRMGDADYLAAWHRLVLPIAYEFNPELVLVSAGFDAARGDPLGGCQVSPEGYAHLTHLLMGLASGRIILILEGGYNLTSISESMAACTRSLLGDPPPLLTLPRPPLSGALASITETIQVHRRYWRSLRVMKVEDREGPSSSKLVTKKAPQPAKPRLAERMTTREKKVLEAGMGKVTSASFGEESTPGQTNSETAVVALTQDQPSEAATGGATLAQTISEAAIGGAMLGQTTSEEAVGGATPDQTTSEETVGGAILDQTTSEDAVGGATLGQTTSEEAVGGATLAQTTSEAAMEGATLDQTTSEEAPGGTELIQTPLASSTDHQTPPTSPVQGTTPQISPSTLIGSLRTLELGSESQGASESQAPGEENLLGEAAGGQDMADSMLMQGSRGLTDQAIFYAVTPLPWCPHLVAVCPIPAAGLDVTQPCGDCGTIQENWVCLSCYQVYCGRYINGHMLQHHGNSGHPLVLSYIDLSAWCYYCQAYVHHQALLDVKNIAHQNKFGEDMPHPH
Put plainly: HDAC6 activity, acetylated-AMC-labeled peptide substrate. It counts as biochemical. To be noted: for HDAC6 selectivity (A)/(B): HDAC1 IC50 / HDAC6 IC50; for IC50: read-out: HDAC6 IC50 (B). The method, then: as §1

Data set [2] in a line: Oral pharmacokinetics (Table II). Details: AUC: concentration or dose not given beside the values. The conditions noted are these: in vivo; for AUC: unit inferred.
Data set [3] concerns dorsal root ganglion (DRG) cells. In words: DRG neurite outgrowth after paclitaxel-induced damage. The class given is cell-based, C57BL/6J mice. The conditions noted are these: 0.1 μM and 1 μM, 24 hours prior to 24-hour 0.1 μM paclitaxel; FIG. 1. The protocol:
(§2) To investigate the effect of HDAC6 inhibitors in neuron protection and neuron regeneration, the recovery of dorsal root ganglion (DRG) cells post-paclitaxel injury was tested. Dorsal root ganglion was extracted from 7 week-old female C57BL/6J mice and incubated with HDAC6 inhibitors (compounds COMPOUND 33, COMPOUND 34, or COMPOUND 2) at the concentrations of 0.1 μM and 1 μM, or 100 ng/ml of BDNF, a neuronal growth factor (positive control), for 24 hours prior to a 24-hour incubation of 0.1 μM paclitaxel.
The neurite was stained by pIII-tubulin.

Data set [4] deals with acetylated α-tubulin (Ac-α-tub). In words: Western blot of acetylated α-tubulin in primary DRG cells. It counts as cell-based, C57BL/6J mice. The conditions noted are these: 48 hours of treatment, FIG. 2. The protocol:
as §2
For orientation: Immunoblotting shows a protein as a band on a membrane.

For data set [5], the system named is paclitaxel-induced peripheral neuropathy. Put plainly: Paclitaxel-induced peripheral neuropathy, Von Frey test. The class given is in vivo, Sprague-Dawley (SD) rats. To be noted: for mean withdrawal force threshold: 15 mg/kg one hour prior to test, mean±SEM. The method, then:
Male Sprague-Dawley (SD) rats, weighing 320±30 grams, were given paclitaxel intraperitoneally at the dose of 6 mg/kg for 5 consecutive days with a total cumulative dose of 30 mg/kg to induce chemotherapy-induced peripheral neuropathy.
Compound 2 or vehicle was administered orally once daily for 2 weeks during the weekdays (Days 8 to 12 and 15-19). Mechanical allodynia is assessed by the manual Von Frey test once per week. The animals are given 20 to 30 minutes to acclimatize prior to the testing. The paw is pressed with a series of 8 manual Von Frey monofilaments with logarithmically incremental stiffness [3.61 (0.4 g), 3.84 (0.6 g), 4.08 (1.0 g), 4.31 (2.0 g), 4.56 (4.0 g), 4.93 (8.0 g), 5.18 (15.0 g) and (26.0 g)]. The manual Von Frey monofilament was applied perpendicularly from underneath the mesh floor to the central plantar surface with sufficient force to cause a slight buckling against the paw, and held for approximately 6-8 seconds. A positive response was noted if the paw is sharply withdrawn; ambulation is considered an ambiguous response, and in such cases, the stimulus is reapplied. The 50% paw withdrawal threshold (PWT) to a static mechanical stimulus was assessed using Von Frey filament and up-and-down method.
Von Frey data were presented as mean±SEM (Standard Error of the Mean). Treatment groups were compared to the paclitaxel control using Student's T-test. A p value <0.05 is considered to represent a significant difference.

Each structure is given as a SMILES string.

T1 sequence (Q13547 whole entry): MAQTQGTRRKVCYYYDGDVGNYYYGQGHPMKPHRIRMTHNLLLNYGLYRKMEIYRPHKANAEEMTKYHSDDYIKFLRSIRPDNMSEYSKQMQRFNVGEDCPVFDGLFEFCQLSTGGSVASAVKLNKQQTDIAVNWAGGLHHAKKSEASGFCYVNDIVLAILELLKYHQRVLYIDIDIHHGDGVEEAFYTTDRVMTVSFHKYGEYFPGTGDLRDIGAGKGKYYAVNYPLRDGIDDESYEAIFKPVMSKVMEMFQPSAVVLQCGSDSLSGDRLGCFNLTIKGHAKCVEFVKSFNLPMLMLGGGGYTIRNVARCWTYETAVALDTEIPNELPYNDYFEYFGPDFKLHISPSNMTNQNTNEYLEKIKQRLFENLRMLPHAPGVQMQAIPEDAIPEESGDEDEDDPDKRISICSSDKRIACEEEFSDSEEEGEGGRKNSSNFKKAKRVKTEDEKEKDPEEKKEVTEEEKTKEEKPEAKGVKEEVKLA

As for `O=C(CCCCCCNC(=O)c1cnc(N(c2ccccc2)c2ccccc2)nc1)NO` [ACY-1215, reference compound], the “mean withdrawal threshold (50% PWT)” value in data set [1] is listed as “not ACY1215, Reverses Cisplatin-Induced Neuropathy”. In the data set with Rat DRG cells, the “neurite degeneration (neurite area and number of blebs ratio)” value was “significantly lesser degree of neurite degeneration”.
Usually IC50 stands for the midpoint of a concentration-inhibition curve. The Cmax is the highest concentration seen after dosing. As usually defined, the AUC is concentration integrated over time. As to `Cc1cccc(C)c1-n1c(C)nc2cc(F)c(/C=C/C(=O)NO)cc2c1=O` [Compound 1, (E)-3-(3-(2,6-dimethylphenyl)-7-fluoro-2-methyl-4-oxo-3,4-dihydroquinazolin-6-yl)-N-hydroxyacrylamide], half-maximal inhibition on HDAC1 (IC50) was put at 3.94 µM. On HDAC6, the “HDAC6 selectivity (A)/(B)” value is 328 and the IC50 amounted to 0.012 µM. In data set [2], this molecule came in with a peak concentration (Cmax) of 4130 ng/mL and an exposure (AUC) of 5830 ng·h/mL.
The like results for `CCc1nc2cc(F)c(/C=C/C(=O)NO)cc2c(=O)n1-c1ccc(Br)cc1C` [Compound 6, (E)-3-(3-(4-bromo-2-methylphenyl)-2-ethyl-7-fluoro-4-oxo-3,4-dihydroquinazolin-6-yl)-N-hydroxyacrylamide] were, in that order, 5.1 µM, 85, 0.06 µM, 3630 ng/mL and 42600 ng·h/mL.
Taken in the same sequence, the figures for `CCc1nc2c(F)cc(/C=C/C(=O)NO)cc2c(=O)n1-c1c(C)cccc1C` [Compound 11, (E)-3-(3-(2,6-dimethylphenyl)-2-ethyl-8-fluoro-4-oxo-3,4-dihydroquinazolin-6-yl)-N-hydroxyacrylamide] were 6.9 µM, 43, 0.159 µM, 727 ng/mL and 7180 ng·h/mL.
Taken in the same sequence, the figures for `CCc1nc2cc(F)c(/C=C/C(=O)NO)cc2c(=O)n1-c1cccc(C)c1C` [Compound 22, (E)-3-(3-(2,3-dimethylphenyl)-2-ethyl-7-fluoro-4-oxo-3,4-dihydroquinazolin-6-yl)-N-hydroxyacrylamide] were 4.24 µM, 77, 0.055 µM, 3330 ng/mL and 9920 ng·h/mL.
`CCc1nc2cc(F)c(/C=C/C(=O)NO)cc2c(=O)n1-c1ccc(F)cc1C` [Compound 26, (E)-3-(2-ethyl-7-fluoro-3-(4-fluoro-2-methylphenyl)-4-oxo-3,4-dihydroquinazolin-6-yl)-N-hydroxyacrylamide] yielded an IC50 against HDAC1 of 4.32 µM. Moreover, on HDAC6, the “HDAC6 selectivity (A)/(B)” value worked out at 180 and the IC50 was determined as 0.024 µM. Further, in data set [2], the Cmax stood at 2680 ng/mL and the exposure (AUC) was found to be 12000 ng·h/mL.
On to `CCc1nc2cc(F)c(/C=C/C(=O)NO)cc2c(=O)n1-c1ccc(OC)cc1C` [Compound 34, (E)-3-(2-ethyl-7-fluoro-3-(4-methoxy-2-methylphenyl)-4-oxo-3,4-dihydroquinazolin-6-yl)-N-hydroxyacrylamide], for which, in data set [3], the neurite outgrowth entry is listed as “significantly rescued the neurite outgrowth”. Also, the tubulin hyperacetylation entry in data set [4] is recorded as “tubulin hyperacetylation”. The molecule further yielded an IC50 at HDAC1 of 4.55 µM. At HDAC6, the “HDAC6 selectivity (A)/(B)” value was determined as 175 and the IC50 came to 0.026 µM. In data set [2], this molecule returned a Cmax of 873 ng/mL and an area under the curve (AUC) of 11000 ng·h/mL.
For the molecule `Cc1ccccc1-n1c(C)nc2cc(F)c(/C=C/C(=O)NO)cc2c1=O` [Compound 44], inhibition against HDAC1 was half-maximal at 2.58 µM (IC50). Also, on HDAC6, the “HDAC6 selectivity (A)/(B)” value was 129 and the IC50 turned out to be 0.02 µM. Also, in data set [2], the concentration peaked (Cmax) at 719 ng/mL and the AUC was 5720 ng·h/mL.
As to `CC(C)C[C@H](CN)CC(=O)O` [Pregabalin, reference compound], the “mean withdrawal force threshold” value stood at 24.1 ± 3.45 g in data set [5] (Day 14) and 26 ± 0 g in data set [5] (Day 21). In data set [5] (FIG. 7), the “pain-relief after dosing was stopped” value was “failed to show the efficacy”. Besides, in data set [1], the “mean withdrawal threshold (50% PWT)” value is “increased withdrawal threshold”.
